Legend:
[1] = target: T1, Prx1 (Homo sapiens, UniProt Q06830); assay: Prx1 catalytic activity inhibition; format: biochemical; conditions: recombinant Prx1, 1 hour incubation
T1 sequence (Q06830 1-199): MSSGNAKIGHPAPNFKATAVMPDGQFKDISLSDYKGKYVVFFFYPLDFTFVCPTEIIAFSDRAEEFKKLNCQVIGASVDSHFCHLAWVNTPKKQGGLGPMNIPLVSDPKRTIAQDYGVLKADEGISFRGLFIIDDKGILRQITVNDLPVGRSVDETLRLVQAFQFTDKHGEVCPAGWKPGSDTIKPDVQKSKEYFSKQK
Protocol: The recombinant Prx1 protein was incubated with the indicated concentration of FB, 12, or conoidin A for 1 hour. Data are presented as mean±s.e.m. (n=3 technical replicates per condition). […]. Statistical significance was determined by the Student's t-test.
Prx1 and Grx3 are antioxidant enzymes known to regulate oxidative stress. Prx1 catalyzes peroxide reduction of H2O2, whereas Grx3 functions as glutathione (GSH)-dependent oxidoreductase by participating in the conversion of reduced GSH to oxidized glutathione disulfide (GSSG). […] While Grx3 biochemical assays are lacking, FB and active analogs could lead to a decrease in GSH levels and an increase in GSSG levels in HCT116 cells (FIGS. 23A-B). As antioxidant enzymes utilize cysteine-containing active sites to reduce various cellular peroxide or disulfide substrates, the role of Prx1/Grx3 cysteines in FB ligand-binding was assessed through replacing their cysteines to alanines. […] Finally, mass spectrometry analysis confirmed the covalent modification of Prx1 and Grx3 by FB at these specific target sites. These cumulative studies provide strong validation of Prx1 and Grx3 as the predominate molecular targets of PNQs in cancer cells.

[2] = tested on: caspase 3; assay: Caspase 3 activation / cleaved PARP in HCT116 cells (Western blot); format: cell-based, human; conditions: HCT116, 2 μM, 12 h
Protocol: (§1) HCT116 cells were treated with 1 μM MK2206 and 100 nM PD0325901 alone and in combination, 100 nM rapamycin, 0.5 μM AZD8055, 2 μM UCF76-A or 2 μM FB for 12 h followed by Western blot analysis for the indicated proteins.
(§2) Cells were lysed in NP-40 lysis buffer (50 mM Tris-HCl, pH 7.5, 150 mM NaCl, 1 mM EDTA, 1% NP-40, 10% glycerol, protease and phosphatase inhibitor cocktail). Western blot analysis were performed using equivalent total protein loadings as described previously. For immunoprecipitation, the cell lysates were incubated with the indicated antibody overnight followed by incubation with a 50% slurry of protein G sepharose beads for 3 h at 4° C. The beads were washed three times with the lysis buffer, and the immunoprecipitated protein complexes were resuspended in 2× Laemmli sample buffer followed by western blot analysis.

[3] = tested on: S6 phosphorylation; assay: S6 phosphorylation in HCT116 cells (Western blot); format: cell-based, human; conditions: HCT116, 12 h; 2 μM FB or UCF76-A, 100 nM rapamycin, 0.5 μM AZD8055
Protocol: as §1, §2

[4] = tested on: colorectal cancer (CRC) cell lines; assay: Cytotoxicity against a panel of colorectal cancer cell lines; format: cell-based, human; conditions: 72 h
Text: Human colon (HCT116, DLD-1, T84, HCT15, RKO, SW620) and breast (MDA-MB-231) cancer cell lines were obtained from the American Type Culture Collection (ATCC, Manassas, Va.) and cultured in the appropriate medium with supplements as recommended by ATCC. […] In addition, all the cell lines are routinely checked for morphologic and growth changes, to probe for cross-contaminated, or genetically drifted cells. If any of these features occur, we use the short tandem repeat (STR) profiling service by ATCC to re-authenticate the cell lines. HCT116 cells with stable knockdown of 4E-BP1 and its control stable transfectants were generated as described previously {Ye, 2014 #1007}. For transient transfection, cells were transiently transfected with DNA using Lipofectamine 3000 according to the manufacturer's protocol (Life Technologies, Carlsbad, Calif.).
(§3) Cell growth was assessed as described previously. Briefly, 5×10^4 cells were seeded in 6-well plates in triplicates. After 24 h, cells were treated with the indicated compounds and incubated at 37° C. The cells were cultured for 3 days and the number of viable cells was counted using the Vi-CELL XR 2.03 (Beckman Coulter, Brea, Calif.). For apoptosis, cells were analyzed by flow cytometry using the Annexin V-FITC Apoptosis Detection Kit according to the manufacturer's protocol (BD Biosciences, San Jose, Calif.).

[5] = tested on: 4E-BP1 phosphorylation; assay: 4E-BP1 phosphorylation in DLD-1 colon cancer cells (Western blot); format: cell-based, human; conditions: DLD-1 cells, 2 μM, 12 hours
Protocol: Cells were treated with 100 nM rapamycin, 0.5 μM AZD8055, 2 μM FB, 2 μM UCF76-A or DMSO control for 12 hours followed by Western blot analysis for the indicated proteins.
as §2

[6] = tested on: AKT phosphorylation; assay: AKT phosphorylation in HCT116 cells (Western blot); format: cell-based, human; conditions: HCT116, 12 h; 2 μM FB or UCF76-A, 0.5 μM AZD8055, 1 μM MK2206
Protocol: as §1, §2

[7] = tested on: HCT116 cells; assay: Cell growth / cytotoxicity in HCT116 cells; format: cell-based, human; conditions: HCT116; 0.5 μM FB or UCF76-A versus 100 nM rapamycin, 0.5 μM AZD8055
Protocol: (§4) Compounds that pass this single dose filter are then tested in a CRC (HCT116) in vitro cytotoxicity assay and, in parallel, an in vitro assay to assess propensity for intracellular reactive oxygen species (ROS) production using the redox sensitive probe CeIIROX® Deep Red reagent (Invitrogen) by flow cytometry analysis (47).
as §3

[8] = tested on: intracellular reactive oxygen species (ROS); assay: Intracellular ROS production, CellROX Deep Red flow cytometry, HCT116 cells; format: cell-based, human; conditions: HCT116, 2 μM, 1 h
Protocol: as §4
The ROS production was determined using the CellROX Deep Red Flow Cytometry Assay Kit according to the manufacturer's protocol (Life Technologies). Briefly, cells were treated with 2 μM of the indicated compounds or DMSO as control for 1 h. After treatment, cells were incubated with 0.5 μM of CellROX Deep Red reagent for 1 h at 37° C., washed twice with PBS and immediately analyzed by a FACScan flow cytometer. For the measurement of cellular H2O2 level, cells were treated with 2 μM of the indicated compounds for 5 h.

[9] = tested on: cap-dependent translation; assay: Cap-dependent translation bicistronic luciferase reporter assay in HCT116 cells; format: cell-based, human; conditions: 12 h

- inhibition of Prx1 catalytic activity [1]: potently inhibit
Structure (SMILES): CCCC1OC2CC(=O)OC2C2=C1C(=O)c1c(O)cccc1C2=O (stereo not shown) [FB, frenolicin B]
- activation of caspase 3 with induction of cleaved PARP [2]: potent activators
- inhibition of S6 phosphorylation [3]: did not inhibit
- cytotoxicity against CRC cell lines [4]: potent cytotoxicity
- cytotoxicity against CRC cell lines ([4]; listed as frenolicin B): potent cytotoxic activity
- inhibition of 4E-BP1 phosphorylation [5]: selectively inhibit
- inhibition of AKT phosphorylation [6]: did not inhibit
- inhibition of CRC cell growth compared with mTOR inhibitors [7]: more potent than mTOR inhibitors
- cellular ROS [8]: marked increase
- inhibition of cap-dependent translation [9]: effectively inhibit
